The values that follow come from ChEMBL document CHEMBL1132591, “Synthesis of retinoid X receptor-specific ligands that are potent inducers of adipogenesis in 3T3-L1 cells” (J Med Chem, 1999).

The structures appear in SMILES notation.

In assay [1] the target is T1, Retinoic acid receptor alpha (Homo sapiens) (UniProt P10276).
T1 sequence (whole entry): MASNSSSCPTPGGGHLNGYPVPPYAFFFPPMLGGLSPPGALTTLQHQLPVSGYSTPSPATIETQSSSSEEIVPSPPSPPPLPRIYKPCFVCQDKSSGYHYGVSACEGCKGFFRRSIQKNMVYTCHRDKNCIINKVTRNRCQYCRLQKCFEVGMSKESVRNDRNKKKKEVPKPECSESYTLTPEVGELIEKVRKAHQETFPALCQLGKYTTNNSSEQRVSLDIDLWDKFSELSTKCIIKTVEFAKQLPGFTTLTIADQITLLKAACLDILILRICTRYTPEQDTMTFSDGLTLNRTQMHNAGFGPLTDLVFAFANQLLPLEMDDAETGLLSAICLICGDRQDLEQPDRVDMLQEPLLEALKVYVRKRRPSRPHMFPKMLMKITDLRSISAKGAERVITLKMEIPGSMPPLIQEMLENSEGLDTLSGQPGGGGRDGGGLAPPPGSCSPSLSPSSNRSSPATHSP
The experiment in a line: Percent transcriptional activation relative to ATRA in CV-1 cells expressing Retinoic acid receptor RAR alpha. The class given is functional, cell-based.

For assay [2], the target named is T2, Retinoic acid receptor beta (Homo sapiens, UniProt P10826).
T2 sequence (P10826 whole entry): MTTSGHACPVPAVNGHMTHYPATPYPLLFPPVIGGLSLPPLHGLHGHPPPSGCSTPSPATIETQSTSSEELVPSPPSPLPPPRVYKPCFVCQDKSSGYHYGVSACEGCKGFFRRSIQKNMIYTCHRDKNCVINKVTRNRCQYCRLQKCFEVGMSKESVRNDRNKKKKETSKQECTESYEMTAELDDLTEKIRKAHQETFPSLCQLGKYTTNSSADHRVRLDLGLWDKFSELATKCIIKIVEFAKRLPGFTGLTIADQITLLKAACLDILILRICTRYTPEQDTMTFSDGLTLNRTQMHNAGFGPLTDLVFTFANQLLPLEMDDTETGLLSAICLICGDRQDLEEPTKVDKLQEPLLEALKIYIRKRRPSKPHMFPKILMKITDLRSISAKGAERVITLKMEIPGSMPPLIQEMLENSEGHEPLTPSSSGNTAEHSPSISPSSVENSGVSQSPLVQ
In words: Inhibition of [3H]ATRA binding to baculovirus expressed Retinoic acid receptor RAR beta.

Assay [3] concerns the target T3, Retinoic acid receptor RXR-gamma (Homo sapiens, UniProt P48443).
T3 sequence (P48443 whole entry): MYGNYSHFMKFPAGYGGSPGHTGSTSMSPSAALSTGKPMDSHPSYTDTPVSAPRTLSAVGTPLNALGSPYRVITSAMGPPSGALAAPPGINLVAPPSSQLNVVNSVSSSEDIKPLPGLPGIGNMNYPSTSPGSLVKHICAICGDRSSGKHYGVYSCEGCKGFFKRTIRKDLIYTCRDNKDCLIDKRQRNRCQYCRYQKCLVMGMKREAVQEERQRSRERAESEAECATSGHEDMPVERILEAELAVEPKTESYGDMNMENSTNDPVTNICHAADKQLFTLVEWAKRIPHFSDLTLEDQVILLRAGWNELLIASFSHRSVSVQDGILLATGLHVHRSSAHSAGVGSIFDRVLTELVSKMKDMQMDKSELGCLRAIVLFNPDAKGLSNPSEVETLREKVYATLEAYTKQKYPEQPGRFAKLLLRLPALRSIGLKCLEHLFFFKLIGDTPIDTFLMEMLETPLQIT
The experiment in a line: Transcriptional activity was evaluated in CV-1 cells transfected with expression vector for Retinoic acid receptor RXR-gamma. The class given is functional, cell-based.

The target of assay [4] is T4, Retinoic acid receptor gamma (Homo sapiens, UniProt P13631).
T4 sequence (P13631 whole entry): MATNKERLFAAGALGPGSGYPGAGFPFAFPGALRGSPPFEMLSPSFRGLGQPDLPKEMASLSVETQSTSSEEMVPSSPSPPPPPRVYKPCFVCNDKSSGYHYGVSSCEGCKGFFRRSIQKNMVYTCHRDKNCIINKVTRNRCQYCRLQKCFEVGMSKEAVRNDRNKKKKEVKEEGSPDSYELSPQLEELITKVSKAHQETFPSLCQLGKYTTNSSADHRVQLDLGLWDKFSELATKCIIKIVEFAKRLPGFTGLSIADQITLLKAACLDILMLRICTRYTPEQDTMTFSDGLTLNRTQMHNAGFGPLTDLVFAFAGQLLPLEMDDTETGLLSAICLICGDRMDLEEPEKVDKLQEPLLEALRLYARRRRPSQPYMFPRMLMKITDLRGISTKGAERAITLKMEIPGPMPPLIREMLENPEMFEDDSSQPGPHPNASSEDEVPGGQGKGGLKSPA
In words: Inhibition of [3H]-ATRA binding to baculovirus expressed Retinoic acid receptor RAR gamma.

Assay [5] concerns the target T5, Retinoic acid receptor alpha (Homo sapiens, UniProt P10276).
T5 sequence (P10276 whole entry): T1 sequence (whole entry)
The experiment in a line: Inhibition of [3H]ATRA binding to baculovirus expressed Retinoic acid receptor RAR alpha.

Assay [6] addresses T3, Retinoic acid receptor RXR-gamma. The experiment in a line: Binding affinity towards recombinantly expressed Retinoic acid receptor RXR-gamma in baculoviral system, by using 5 nM [3H]targretin in a competitive binding assay.
The target of assay [7] is T6, Retinoic acid receptor RXR-beta (Homo sapiens) (UniProt P28702).
T6 sequence (whole entry): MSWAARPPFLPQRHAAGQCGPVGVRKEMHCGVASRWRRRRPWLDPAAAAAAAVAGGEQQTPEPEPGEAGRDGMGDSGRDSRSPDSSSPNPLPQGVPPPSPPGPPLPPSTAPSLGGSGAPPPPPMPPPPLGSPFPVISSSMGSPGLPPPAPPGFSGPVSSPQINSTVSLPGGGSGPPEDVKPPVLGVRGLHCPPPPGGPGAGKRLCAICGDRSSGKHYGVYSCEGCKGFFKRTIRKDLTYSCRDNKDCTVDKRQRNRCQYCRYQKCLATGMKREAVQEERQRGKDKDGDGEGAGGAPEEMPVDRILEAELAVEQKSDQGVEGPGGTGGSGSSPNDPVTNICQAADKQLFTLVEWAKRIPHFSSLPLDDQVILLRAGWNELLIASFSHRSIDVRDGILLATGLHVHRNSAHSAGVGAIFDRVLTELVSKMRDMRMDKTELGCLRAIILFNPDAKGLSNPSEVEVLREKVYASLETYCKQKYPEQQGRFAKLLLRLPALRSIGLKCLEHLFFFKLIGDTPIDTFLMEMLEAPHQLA
The experiment in a line: Percent transcriptional activation relative to ATRA in CV-1 cells expressing Retinoid X receptor RXR beta. Format: functional, cell-based.

The target of assay [8] is T7, Retinoic acid receptor RXR-beta (Homo sapiens, UniProt P28702).
T7 sequence (P28702 whole entry): T6 sequence (whole entry)
The experiment in a line: Binding affinity towards recombinantly expressed Retinoic acid receptor RXR-beta in baculoviral system, by using 5 nM [3H]targretin in a competitive binding assay.

In assay [9] the target is T8, Retinoic acid receptor gamma (Homo sapiens) (UniProt P13631).
T8 sequence (whole entry): T4 sequence (P13631 whole entry)
The experiment in a line: Percent transcriptional activation relative to ATRA in CV-1 cells expressing Retinoic acid receptor RAR gamma. Format: functional, cell-based.

For assay [10], the target named is T7, Retinoic acid receptor RXR-beta. In words: Transcriptional activity was evaluated in CV-1 cells transfected with expression vector for Retinoic acid receptor RXR-beta. Format: functional, cell-based.
The target of assay [11] is T9, Retinoic acid receptor RXR-alpha (Homo sapiens, UniProt P19793).
T9 sequence (P19793 whole entry): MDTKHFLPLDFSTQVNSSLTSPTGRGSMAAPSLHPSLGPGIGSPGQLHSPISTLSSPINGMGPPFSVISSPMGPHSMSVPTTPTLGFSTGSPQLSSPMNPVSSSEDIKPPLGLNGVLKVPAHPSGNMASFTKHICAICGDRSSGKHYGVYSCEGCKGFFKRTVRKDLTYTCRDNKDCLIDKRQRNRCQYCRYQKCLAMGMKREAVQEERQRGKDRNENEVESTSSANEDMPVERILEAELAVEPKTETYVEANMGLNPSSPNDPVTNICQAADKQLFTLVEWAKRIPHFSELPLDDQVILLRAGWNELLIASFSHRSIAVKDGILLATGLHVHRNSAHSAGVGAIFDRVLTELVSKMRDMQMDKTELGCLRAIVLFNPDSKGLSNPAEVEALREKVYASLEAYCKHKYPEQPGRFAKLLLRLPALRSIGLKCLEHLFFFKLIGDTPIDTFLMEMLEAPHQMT
The experiment in a line: Transcriptional activity was evaluated in CV-1 cells transfected with expression vector for Retinoic acid receptor RXR-alpha. The class given is functional, cell-based.

The target of assay [12] is T9, Retinoic acid receptor RXR-alpha. In words: Binding affinity towards recombinantly expressed Retinoic acid receptor RXR-alpha in baculoviral system, by using 5 nM [3H]targretin in a competitive binding assay.
In assay [13] the target is T10, Retinoic acid receptor beta (Homo sapiens) (UniProt P10826).
T10 sequence (whole entry): T2 sequence (P10826 whole entry)
In words: Percent transcriptional activation relative to ATRA in CV-1 cells expressing Retinoic acid receptor RAR beta. Format: functional, cell-based.

`CO/N=C(\c1ccc(C(=O)O)cc1)c1cc2c(cc1C)C(C)(C)CCC2(C)C`: the Efficacy in assay [1] came to 2%; in [7], 90%; in [9], 2%; in assay [13], 5%. Besides, the Ki in [2] was greater than 10 µM; in assay [4], greater than 10 µM; in assay [5], greater than 10 µM; in assay [6] it was 8 nM; in assay [8], 8 nM; in [12] it was 9 nM. For the same compound, the EC50 was 4 nM in assay [3], 10 nM in assay [10] and 5 nM in assay [11].
